Data taken from patent US20260283941A1, “PHARMACEUTICAL COMPOSITION CONTAINING PYRROLE GASTRIC ACID SECRETION INHIBITOR AND PREPARATION METHOD THEREFOR” (JIANGSU CAREPHAR PHARMACEUTICAL CO., LTD., priority 2022, published 2026).

Experiment: Stability investigation: properties (appearance) of the injection solutions
Type: physicochemical
Conditions: pH of the injectable composition 2.0
Procedure: The compound represented by formula II and the stabilizer were weighed and dissolved in 90% of a prescribed amount of water for injection. The pH of the solution was adjusted with hydrochloric acid, and then water for injection was added to the full amount. The solution was filled up to 2 mL, and was flushed with nitrogen before and after filling and sealing. The solution was sterilized at 121° C. for 15 minutes to obtain the composition. […] The changes of impurities were detected by high-performance liquid chromatography (HPLC). The analytical method used to detect the impurity content was as follows:
The compound represented by formula II and disodium edetate or calcium disodium edetate were weighed and dissolved in 90% of a prescribed amount of water for injection. The pH of the solution was adjusted with hydrochloric acid, and then water for injection was added to the full amount. The solution was filled in a 2 mL ampoule, and was flushed with nitrogen before and after filling and sealing. The sample was sterilized at 121° C. for 15 minutes to obtain the composition. The compositions were placed under conditions including a high temperature of 60° C. and illumination at 5000 Lx for stability investigation, to determine the properties of the injection solutions and the changes of impurities.

- Solubility (in words): reduced solubility
Compound: CNCc1cc(-c2ccccc2F)n(S(=O)(=O)c2cccc(OCCCOC)c2)c1.Cl [compound represented by formula II]
